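Each compound was tested at five concentrations against cells in 96-well plates for 48 hours. TGI denotes the concentration required for complete inhibition of growth.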

The TGI is the concentration at which net growth stops.

Holding throughout (test): DTP human tumour cell line panel, 48 h
Experiment [1] deals with CAKI-1 renal.
The subject of experiment [2] is CCRF-CEM leukemia.
Experiment [3] relates to MDA-MB-435.
The test system of experiment [4] is MDA-N.
Experiment [5] concerns NCI-H522 lung.
In experiment [6] the test system is OVCAR-3 ovarian.
For experiment [7], the system named is OVCAR-5 ovarian.
The test system of experiment [8] is UACC-257 melanoma.
The test system of experiment [9] is SK-OV-3 ovarian.
The subject of experiment [10] is UO-31 renal.

As for `O=c1[nH]c2ccc(C(F)(F)F)cc2nc1-c1ccccc1`, the TGI in [1], in [2], in [3], in [4], in experiment [5] and in [6] was greater than 100 µM each time. The TGI in experiment [7] and in experiment [8] was greater than 100 µM in each case.
As to `CCCCCCCCCOC(=O)c1cnc(Cl)cn1`, the total growth inhibition concentration (TGI) in experiment [1] is 31.8 µM; in experiment [2], greater than 100 µM; in experiment [3], 40.8 µM; in [5] it was 36.1 µM; in experiment [7] it was 70.8 µM; in experiment [9], greater than 100 µM. The TGI turned out to be 45.6 µM in experiment [8] and 34.4 µM in [10].
`C=C1C(=O)O[C@@H]2[C@H]3O[C@]3(C)CCC=C(C)CC[C@@H]12`: the TGI in [1] worked out at 22.5 µM; in experiment [2], 59.9 µM; in experiment [5], 17.1 µM; in experiment [6], 40.7 µM; in experiment [7], 63.6 µM; in experiment [9], 131 µM. In addition, the TGI amounted to 34.9 µM in experiment [8] and 91.9 µM in experiment [10].
As to `CC(C)(C)OC(=O)[N+](=N)C(=O)C1CCC(=O)N1C(=O)OCc1ccccc1` (centres undefined), the TGI in [1], in experiment [2], in experiment [3], in experiment [4], in experiment [5] and in experiment [6] was greater than 100 µM throughout. Moreover, the TGI in experiment [7], in experiment [9] and in experiment [10] was greater than 100 µM in each case.
Regarding `CC1C(c2ccc(F)cc2)c2cc3c(cc2OC1N1CCCC1)OCO3` (centres undefined), the TGI in experiment [1] was 58.4 µM; in experiment [2] it was greater than 100 µM; in [3], greater than 100 µM; in [4], greater than 100 µM; in experiment [5] it was greater than 100 µM; in experiment [6], greater than 100 µM. Further, the TGI in experiment [7], in experiment [8] and in experiment [10] was greater than 100 µM in each case.
For the compound `CCCCCCCCC[C@@H]1C[C@@H]2CCC3C(C(=O)OC)=C(C)NC(=N1)N32` (some centres undefined), the TGI in experiment [1] is 37.8 µM; in experiment [2], greater than 100 µM; in experiment [3] it was 6.04 µM; in experiment [5] it was 9.82 µM; in experiment [6], 11.6 µM; in experiment [7], 35.6 µM. Moreover, the values for the TGI in experiment [9], in [8] and in [10] were 25 µM, 27 µM and 30.9 µM, respectively.
Take `c1ccc2c(c1)ccc1nc(-c3ccc4c(c3)OCO4)c3c(c12)CCCC3`: the TGI in experiment [1] is greater than 100 µM; in experiment [2] it was greater than 100 µM; in experiment [3] it was 87.7 µM; in experiment [4] it was greater than 100 µM; in [6], greater than 100 µM; in experiment [7] it was greater than 100 µM. For the same compound, the TGI in experiment [9] was greater than 100 µM; in experiment [8] it was greater than 100 µM; in experiment [10] it was 90.8 µM.
On to `CCOC(=O)CC(=O)NC1CC2CCC1(C)C2(C)C` (centres undefined), for which the TGI in experiment [1], in experiment [2], in experiment [3], in experiment [4], in experiment [6] and in experiment [7] was greater than 100 µM in each case. For the same compound, the TGI in experiment [9], in experiment [8] and in experiment [10] was greater than 100 µM each time.
Turning to `COC(=O)c1ccccc1C1CN=NC12Cc1ccc3ccccc3c1C2=O` (centres undefined), the TGI in [1], in [2], in experiment [3], in experiment [4], in [5] and in [6] was greater than 100 µM each time. For the same compound, the TGI in experiment [7], in [8] and in [10] was greater than 100 µM in each case.
As for `Cn1cc(C(=O)c2nccc3c2cnc2ccccc23)ccc1=O`, the TGI in experiment [1], in experiment [2], in experiment [3], in experiment [4], in experiment [6] and in experiment [7] was greater than 100 µM throughout. Further, the TGI in experiment [9], in experiment [8] and in [10] was greater than 100 µM each time.
With `Cc1ccc(Nc2nc(=S)[nH]c3[nH]ncc23)cc1`, the TGI in [1], in experiment [2], in experiment [3], in experiment [5], in [6] and in experiment [7] was greater than 100 µM in each case. The TGI in experiment [9], in experiment [8] and in experiment [10] was greater than 100 µM in each case.
For `CC1=C2C(O)C(C(C)C(=O)NCC(C)C)CCC2(C)C=CC1=O` (centres undefined), the TGI in experiment [1], in [2], in experiment [5], in [6], in [7] and in experiment [8] was greater than 100 µM throughout. Also, the concentration for total growth inhibition (TGI) in [10] is greater than 100 µM.
With `C=C[C@@H]1OC(=O)O[C@H]1CO`, the TGI in experiment [2], in experiment [3], in [4], in [6], in experiment [7] and in [9] was greater than 100 µM in each case. The TGI in experiment [8] and in [10] was greater than 100 µM throughout.
For the compound `CC/C(=N\NC(=O)c1cccnc1)c1ccc2c(c1)OCCO2`, the TGI in [1] was greater than 100 µM; in experiment [2] it was greater than 100 µM; in [3], greater than 100 µM; in [4], greater than 100 µM; in experiment [5], 79.5 µM; in experiment [6] it was greater than 100 µM. Besides, the TGI in experiment [7], in experiment [9] and in [10] was greater than 100 µM in each case.
`COc1c(CC=C(C)C)c(O)c(C(CC(C)C)c2c(O)c(C(C)=O)c(O)c3c2OC(C(C)(C)O)C3)c(O)c1C(C)=O` (centres undefined): the TGI in [1], in experiment [2], in experiment [3], in experiment [4], in experiment [5] and in [6] was greater than 12.5 µM in each case. Besides, the TGI is greater than 12.5 µM in experiment [7], 9.32 µM in [8] and greater than 12.5 µM in experiment [10].

The values are drawn from PubChem BioAssay (NCI).
